In patent US20160193188A1, “METHODS AND COMPOSITIONS FOR INCREASING THE EFFECTIVENESS OF ANTIVIRAL AGENTS” (ANTIVIRUS THERAPEUTICS, priority 2013, published 2016):
Like-named read-outs stand apart in the source and are kept apart here.

Experiments:
[1] = 25° C.; cited from earlier work
[2] = system: human respiratory picornavirus; conditions: oral dosage form; cited from earlier work
[3] = system: CYP 3A; conditions: oral delivery, 200-400 mg dose level, cited from earlier work
[4] = Study 843-203: safety and tolerability in healthy adults; assay type: in vivo, human; conditions: healthy volunteers
[5] = system: rhinovirus type 39; assay: Study 843-203: experimentally induced human rhinovirus respiratory infection in healthy adults, antiviral and clinical efficacy; assay type: in vivo
Experimental: Subjects were confined to a clinical facility with on-site medical surveillance from Day −2 through Day 5; outpatient follow-up visits were conducted on Days 5-7. On Day −1, 24 hours before administration of the first dose of study drug, each subject received an intranasal inoculation of 100-300 tissue culture infective dose 50% (TCID50) rhinovirus type 39. Nasal wash specimens were collected pre-inoculation and once or twice daily at predetermined time points on Days 1-7 for virologic determinations. Nasal mucus weights were determined daily through Day 4. The presence and severity of clinical symptoms were assessed throughout the study period. […] One subject in the pleconaril BID nasal spray group had study drug interrupted temporarily due to “blood in nasal mucus” observed on Day 1; this event was considered mild and resolved without treatment, and the subject completed BID dosing on Days 2 and 3.
Primary Endpoint: Log-transformed virus titers from serial nasal wash samples in Study 843-203 are shown in FIG. 2 for virology evaluable subjects (i.e., those subjects with a pre-inoculation serum neutralizing antibody titer to rhinovirus type 39 ˜1:2 and reverse transcriptase polymerase chain reaction [RT-PCR] and culture negative nasal wash sample and at least one post baseline nasal wash sample that was RT-PCR or culture positive). At the time of maximum viral titers (Day 2 AM) in the combined vehicle groups, median viral titers in each pleconaril group were 0.78-1.26 log lower than vehicle groups, and viral titers in the combined pleconaril BID/TID groups were 1 log lower than the vehicle groups.

[6] = 12 mg per day nasal spray; cited from earlier work

Cc1cc(CCCOc2c(C)cc(-c3noc(C(F)(F)F)n3)cc2C)on1 [pleconaril, 3-{3,5-dimethyl-4-[3-(3-methylisoxazol-5-yl)propoxy]phenyl}-5-(trifluoromethyl)-1,2,4-oxadiazole]
solubility in water [1]: < 0.02 µg/mL
activity against human respiratory picornavirus [2]: broad activity
CYP 3A / CYP 3A4 induction [3]: inducer of CYP 3A4
CYP 3A / CYP 3A4 induction ([3]; listed as Pleconaril): induction of CYP 3A
serious adverse events [4]: No serious adverse events
repeated measures analysis of viral titers, between-group comparison ([5]; Day 1 PM to Day 7): not significant
median log-transformed viral titers vs vehicle groups ([5]; each pleconaril treatment group (intranasal and oral), initiation of study drug through Day 3 AM): lower than the vehicle groups at all measured time points
nasal mucus weights vs combined vehicle controls ([5]; nasal and oral pleconaril groups): significantly lower nasal mucus weights
benefit vs. vehicle ([5]; nasal and oral pleconaril groups, through day 3 post infection): showed benefit vs. vehicle
effect on common cold symptom duration and viral titers ([5]; nasal spray BID, nasal spray TID or oral): effective in reducing common cold symptom duration and viral titers
median viral titers lower than vehicle groups ([5]; nasal wash, Day 2 AM (time of maximum viral titers), each pleconaril group): 0.78-1.26 log
viral titers lower than vehicle groups ([5]; nasal wash, Day 2 AM, combined pleconaril BID/TID groups): 1 log
clinical/antiviral effect compared with 400 mg oral dose [6]: roughly similar clinical/antiviral effect
systemic exposure [6]: without any significant systemic exposure
